Reference: patent US6737383B1, “Herbicidal oxadiazolidines” (priority 1999, dated 2004)

Columns and labels:
wheat = assay: Test B pre/postemergence wheat; type: in vivo, Triticum aestivum
Outline: (§1)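 Test chemicals in a non-phytotoxic solvent mixture with surfactant were sprayed preemergence onto planted seeds and postemergence onto plants 2 to 18 cm tall (1- to 4-leaf stage). After twelve to sixteen days in a greenhouse, injury was visually rated against untreated controls from 0 (no effect) to 10 (complete control).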

soybean = assay: Test B pre/postemergence soybean; type: in vivo, Glycine max
Outline: as §1

purple nutsedge = assay: Test B pre/postemergence purple nutsedge; type: in vivo, Cyperus rotundus
Outline: as §1

blackgrass = assay: Test B pre/postemergence blackgrass; type: in vivo, Alopecurus myosuroides
Outline: as §1

giant foxtail = assay: Test B pre/postemergence giant foxtail; type: in vivo, Setaria faberii
Outline: as §1

morningglory = assay: Test B pre/postemergence morningglory; type: in vivo, Ipomoea hederacea
Outline: as §1

velvetleaf = assay: Test B pre/postemergence velvetleaf; type: in vivo, Abutilon theophrasti
Outline: as §1

smallflower flatsedge = assay: Test B flood test smallflower flatsedge; type: in vivo, Cyperus difformis
Outline: (§2)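 Read-out is a visual response score from 0 (no effect) to 10 (complete control), assigned by comparison with untreated controls. Treatment was applied at the 2-leaf stage, and plants stayed in the greenhouse for twelve to sixteen days before scoring.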

wild oat = assay: Test B pre/postemergence wild oat; type: in vivo, Avena fatua
Outline: as §1

sugar beet = assay: Test B pre/postemergence sugar beet; type: in vivo, Beta vulgaris
Outline: as §1

rape = assay: Test B pre/postemergence rape; type: in vivo, Brassica napus
Outline: as §1

corn = assay: Test B pre/postemergence corn; type: in vivo, Zea mays
Outline: as §1

surinam grass = assay: Test B pre/postemergence surinam grass; type: in vivo, Brachiaria decumbens
Outline: as §1

crabgrass = assay: Test B pre/postemergence crabgrass; type: in vivo, Digitaria sanguinalis
Outline: as §1

cocklebur = assay: Test B pre/postemergence cocklebur; type: in vivo, Xanthium strumarium
Outline: as §1

duck salad = assay: Test B flood test duck salad; type: in vivo, Heteranthera limosa
Outline: as §2

[1] = Postemergence, Rate 250 g/ha, scale 0 to 10
[2] = Postemergence, Rate 500 g/ha, scale of 0 to 10 where 0 is no effect and 10 is complete control
[3] = Postemergence, Rate 1000 g/ha, scale 0 to 10 (0 no effect, 10 complete control)
[4] = Preemergence, Rate 125 g/ha, scale of 0 to 10 where 0 is no effect and 10 is complete control
[5] = Preemergence, Rate 250 g/ha, scale 0 to 10, 0 is no effect, 10 is complete control
[6] = Preemergence, Rate 500 g/ha, scale 0 to 10, 0 is no effect, 10 is complete control
[7] = Rate 125 g/ha, Postemergence, scale 0 to 10, 0 is no effect, 10 is complete control
[8] = Rate 1000 g/ha, Preemergence, scale 0 to 10 (0 no effect, 10 complete control)
[9] = Pre-emergence, Rate 1000 g/ha, scale 0 to 10 (0 no effect, 10 complete control)
[10] = Rate 125 g/ha, under heading Pre-emergence, flood test species, visual evaluation after twelve to sixteen days
[11] = Rate 250 g/ha, Pre-emergence (flood test species), scale 0 to 10, 0 is no effect, 10 is complete control
[12] = Rate 500 g/ha, Pre-emergence, flood test species, scale 0 to 10 (0 no effect, 10 complete control)

With `CCOP(=O)(OCC)C(C)n1c(=O)on(C(=O)N(c2ccccc2)C(C)C)c1=O` (stereo not shown) [Compound 448] the “Wheat plant response rating” value (wheat; [1]) was 0, the “Wheat plant response rating” value (wheat; [2]) was 0 and the “Wheat plant response rating” value (wheat; [3]) was 0. The “Plant response rating, Wheat” value (wheat; [4]) was 0, the “Wheat plant response rating” value (wheat; [5]) was 0 and the “Wheat plant response rating” value (wheat; [6]) was 0. The “Wheat plant response rating” value (wheat; [7]) was 0, the “Plant response rating, Wheat” value (wheat; [8]) was 0 and the “Soybean plant response rating” value (soybean; [1]) was 2. For the same molecule, the “Soybean plant response rating” value (soybean; [2]) was 5, the “Soybean plant response rating” value (soybean; [3]) was 6 and the “Plant response rating, Soybean” value (soybean; [4]) was 0. The “Soybean plant response rating” value (soybean; [5]) was 0, the “Soybean plant response rating” value (soybean; [6]) was 0 and the “Soybean plant response rating” value (soybean; [7]) was 1. For the same molecule, the “Plant response rating, Soybean” value (soybean; [8]) was 0, the “Nutsedge plant response rating” value (purple nutsedge; [1]) was 0 and the “Nutsedge plant response rating” value (purple nutsedge; [2]) was 0. The “Nutsedge plant response rating” value (purple nutsedge; [3]) was 0, the “Plant response rating, Nutsedge” value (purple nutsedge; [4]) was 0 and the “Nutsedge plant response rating” value (purple nutsedge; [5]) was 0. For the same molecule, the “Nutsedge plant response rating” value (purple nutsedge; [6]) was 0, the “Nutsedge plant response rating” value (purple nutsedge; [7]) was 0 and the “Plant response rating, Nutsedge” value (purple nutsedge; [8]) was 0. The “Blackgrass plant response rating” value (blackgrass; [1]) was 0, the “Blackgrass plant response rating” value (blackgrass; [2]) was 0 and the “Blackgrass plant response rating” value (blackgrass; [3]) was 2. For the same molecule, the “Plant response rating, Blackgrass” value (blackgrass; [4]) was 0, the “Blackgrass plant response rating” value (blackgrass; [5]) was 0 and the “Blackgrass plant response rating” value (blackgrass; [6]) was 2. For the same molecule, the “Blackgrass plant response rating” value (blackgrass; [7]) was 0, the “Plant response rating, Blackgrass” value (blackgrass; [8]) was 4 and the “Giant foxtail plant response rating” value (giant foxtail; [1]) was 0. The “Giant foxtail plant response rating” value (giant foxtail; [2]) was 0, the “Giant foxtail plant response rating” value (giant foxtail; [3]) was 0 and the “Plant response rating, Giant foxtail” value (giant foxtail; [4]) was 2. The “Giant foxtail plant response rating” value (giant foxtail; [5]) was 3, the “Giant foxtail plant response rating” value (giant foxtail; [6]) was 9 and the “Giant foxtail plant response rating” value (giant foxtail; [7]) was 0. The “Plant response rating, Giant foxtail” value (giant foxtail; [8]) was 9, the “Morningglory plant response rating” value (morningglory; [1]) was 2 and the “Morningglory plant response rating” value (morningglory; [2]) was 5. For the same molecule, the “Morningglory plant response rating” value (morningglory; [3]) was 8, the “Plant response rating, Morningglory” value (morningglory; [4]) was 0 and the “Morningglory plant response rating” value (morningglory; [5]) was 0. For the same molecule, the “Morningglory plant response rating” value (morningglory; [6]) was 0, the “Morningglory plant response rating” value (morningglory; [7]) was 0 and the “Plant response rating, Morningglory” value (morningglory; [8]) was 0. The “Velvetleaf plant response rating” value (velvetleaf; [1]) was 0, the “Velvetleaf plant response rating” value (velvetleaf; [2]) was 0 and the “Velvetleaf plant response rating” value (velvetleaf; [3]) was 2. The “Plant response rating, Velvetleaf” value (velvetleaf; [4]) was 0, the “Velvetleaf plant response rating” value (velvetleaf; [5]) was 0 and the “Velvetleaf plant response rating” value (velvetleaf; [6]) was 0. The “Velvetleaf plant response rating” value (velvetleaf; [7]) was 0, the “Plant response rating, Velvetleaf” value (velvetleaf; [8]) was 0 and the “S. Flatsedge plant response rating” value (smallflower flatsedge; [9]) was 0. The “S. Flatsedge plant response rating (0 to 10 scale, 0 is no effect, 10 is complete control)” value (smallflower flatsedge; [10]) was 0, the “S. Flatsedge plant response rating” value (smallflower flatsedge; [11]) was 0 and the “S. Flatsedge plant response rating” value (smallflower flatsedge; [12]) was 0. The “Wild oats plant response rating” value (wild oat; [1]) was 0, the “Wild oats plant response rating” value (wild oat; [2]) was 0 and the “Wild oats plant response rating” value (wild oat; [3]) was 4. The “Plant response rating, Wild oats” value (wild oat; [4]) was 0, the “Wild oats plant response rating” value (wild oat; [5]) was 0 and the “Wild oats plant response rating” value (wild oat; [6]) was 0. For the same molecule, the “Wild oats plant response rating” value (wild oat; [7]) was 0, the “Plant response rating, Wild oats” value (wild oat; [8]) was 5 and the “Sugarbeets plant response rating” value (sugar beet; [1]) was 0. For the same molecule, the “Sugarbeets plant response rating” value (sugar beet; [2]) was 0, the “Sugarbeets plant response rating” value (sugar beet; [3]) was 0 and the “Plant response rating, Sugarbeets” value (sugar beet; [4]) was 0. The “Sugarbeets plant response rating” value (sugar beet; [5]) was 0, the “Sugarbeets plant response rating” value (sugar beet; [6]) was 0 and the “Sugarbeets plant response rating” value (sugar beet; [7]) was 0. The “Plant response rating, Sugarbeets” value (sugar beet; [8]) was 0, the “Rape plant response rating” value (rape; [1]) was 0 and the “Rape plant response rating” value (rape; [2]) was 0. For the same molecule, the “Rape plant response rating” value (rape; [3]) was 0, the “Plant response rating, Rape” value (rape; [4]) was 0 and the “Rape plant response rating” value (rape; [5]) was 0. For the same molecule, the “Rape plant response rating” value (rape; [6]) was 0, the “Rape plant response rating” value (rape; [7]) was 0 and the “Plant response rating, Rape” value (rape; [8]) was 0. For the same molecule, the “Corn plant response rating” value (corn; [1]) was 0, the “Corn plant response rating” value (corn; [2]) was 0 and the “Corn plant response rating” value (corn; [3]) was 0. The “Plant response rating, Corn” value (corn; [4]) was 0, the “Corn plant response rating” value (corn; [5]) was 0 and the “Corn plant response rating” value (corn; [6]) was 0. For the same molecule, the “Corn plant response rating” value (corn; [7]) was 0, the “Plant response rating, Corn” value (corn; [8]) was 2 and the “B. signalgrass plant response rating” value (surinam grass; Postemergence, Rate 250 g/ha, scale 0 to 10, 0 no effect, 10 complete control) was 0. The “B. signalgrass plant response rating” value (surinam grass; [2]) was 0, the “B. signalgrass plant response rating” value (surinam grass; [3]) was 0 and the “Plant response rating, B. signalgrass” value (surinam grass; [4]) was 0. For the same molecule, the “B. signalgrass plant response rating” value (surinam grass; [5]) was 0, the “B. signalgrass plant response rating” value (surinam grass; [6]) was 2 and the “B. signalgrass plant response rating” value (surinam grass; [7]) was 0. The “Plant response rating, B. signalgrass” value (surinam grass; [8]) was 4, the “Crabgrass plant response rating” value (crabgrass; [1]) was 0 and the “Crabgrass plant response rating” value (crabgrass; [2]) was 0. The “Crabgrass plant response rating” value (crabgrass; [3]) was 0, the “Plant response rating, Crabgrass” value (crabgrass; [4]) was 4 and the “Crabgrass plant response rating” value (crabgrass; [5]) was 4. For the same molecule, the “Crabgrass plant response rating” value (crabgrass; [6]) was 9, the “Crabgrass plant response rating” value (crabgrass; [7]) was 0 and the “Plant response rating, Crabgrass” value (crabgrass; [8]) was 9. For the same molecule, the “Cocklebur plant response rating” value (cocklebur; [1]) was 0, the “Cocklebur plant response rating” value (cocklebur; [2]) was 0 and the “Cocklebur plant response rating” value (cocklebur; [3]) was 0. For the same molecule, the “Plant response rating, Cocklebur” value (cocklebur; [4]) was 0, the “Cocklebur plant response rating” value (cocklebur; [5]) was 0 and the “Cocklebur plant response rating” value (cocklebur; [7]) was 0. The “Ducksalad plant response rating” value (duck salad; [9]) was 0, the “Ducksalad plant response rating (0 to 10 scale, 0 is no effect, 10 is complete control)” value (duck salad; [10]) was 0 and the “Ducksalad plant response rating” value (duck salad; [11]) was 0. For the same molecule, the “Ducksalad plant response rating” value (duck salad; [12]) was 0.
